# According to publication PMC7316778 (Nature Communications, 2020):
# Where two headings read alike, the source gives them in different places.
# Legend:
# [1] = target: T1, MARK4 (Homo sapiens, UniProt Q96L34); experiment: SelectScreen kinase assay
# T1 sequence (Q96L34 1-752): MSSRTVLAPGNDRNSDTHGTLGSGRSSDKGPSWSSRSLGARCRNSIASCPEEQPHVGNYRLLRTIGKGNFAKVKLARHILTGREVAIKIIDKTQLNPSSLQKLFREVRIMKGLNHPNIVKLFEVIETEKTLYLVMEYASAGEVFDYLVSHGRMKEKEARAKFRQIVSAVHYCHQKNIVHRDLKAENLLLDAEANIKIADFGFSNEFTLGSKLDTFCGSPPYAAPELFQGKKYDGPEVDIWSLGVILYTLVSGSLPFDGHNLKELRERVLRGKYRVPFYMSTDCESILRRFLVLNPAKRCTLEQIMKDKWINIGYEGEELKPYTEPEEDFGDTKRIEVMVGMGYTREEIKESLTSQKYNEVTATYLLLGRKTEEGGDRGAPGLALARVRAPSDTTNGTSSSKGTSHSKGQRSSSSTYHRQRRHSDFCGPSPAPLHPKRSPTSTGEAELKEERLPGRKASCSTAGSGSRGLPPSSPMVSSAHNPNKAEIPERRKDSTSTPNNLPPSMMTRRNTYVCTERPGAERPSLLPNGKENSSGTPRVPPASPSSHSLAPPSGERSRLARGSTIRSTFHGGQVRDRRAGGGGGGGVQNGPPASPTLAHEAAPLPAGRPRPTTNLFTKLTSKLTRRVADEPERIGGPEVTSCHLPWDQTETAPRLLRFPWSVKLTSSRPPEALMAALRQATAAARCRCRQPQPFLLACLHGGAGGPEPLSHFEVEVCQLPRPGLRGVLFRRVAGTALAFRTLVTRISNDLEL
# Description: (§1) Selectivity profiling assays were performed by the Invitrogen SelectScreen™ Services. […] The concentration of ATP was selected to be equal to the KM, unless indicated otherwise.
# [2] = target: CDK8/cyclin C (Homo sapiens, UniProt P49336); experiment: SelectScreen kinase assay; conditions: read-out: Inhibition at 1 µM (%)
# Chain of CDK8/cyclin C (P49336 whole entry): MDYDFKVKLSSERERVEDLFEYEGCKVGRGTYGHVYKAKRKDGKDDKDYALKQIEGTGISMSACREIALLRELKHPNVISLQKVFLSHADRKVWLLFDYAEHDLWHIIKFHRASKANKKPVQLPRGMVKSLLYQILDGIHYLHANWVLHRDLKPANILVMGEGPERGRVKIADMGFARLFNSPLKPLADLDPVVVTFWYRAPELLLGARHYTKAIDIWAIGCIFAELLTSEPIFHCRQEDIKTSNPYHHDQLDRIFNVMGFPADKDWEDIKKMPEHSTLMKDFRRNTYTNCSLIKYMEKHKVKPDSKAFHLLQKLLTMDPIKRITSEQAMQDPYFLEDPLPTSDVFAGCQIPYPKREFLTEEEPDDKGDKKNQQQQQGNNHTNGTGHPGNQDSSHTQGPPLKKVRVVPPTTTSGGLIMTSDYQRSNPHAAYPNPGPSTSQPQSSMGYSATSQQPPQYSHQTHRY
# Chain of CDK8/cyclin C (P24863 whole entry partner): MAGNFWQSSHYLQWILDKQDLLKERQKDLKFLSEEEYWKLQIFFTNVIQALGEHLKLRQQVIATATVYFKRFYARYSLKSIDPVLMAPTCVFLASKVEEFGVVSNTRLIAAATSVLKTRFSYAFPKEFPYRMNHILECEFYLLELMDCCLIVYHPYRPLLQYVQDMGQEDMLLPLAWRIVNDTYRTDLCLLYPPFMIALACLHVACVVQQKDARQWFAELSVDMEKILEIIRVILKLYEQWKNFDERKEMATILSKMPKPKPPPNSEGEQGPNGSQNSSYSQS
# Description: as §1
# [3] = target: T2, PDK1 Direct (Homo sapiens, UniProt O15530); experiment: SelectScreen kinase assay
# T2 sequence (O15530 1-556): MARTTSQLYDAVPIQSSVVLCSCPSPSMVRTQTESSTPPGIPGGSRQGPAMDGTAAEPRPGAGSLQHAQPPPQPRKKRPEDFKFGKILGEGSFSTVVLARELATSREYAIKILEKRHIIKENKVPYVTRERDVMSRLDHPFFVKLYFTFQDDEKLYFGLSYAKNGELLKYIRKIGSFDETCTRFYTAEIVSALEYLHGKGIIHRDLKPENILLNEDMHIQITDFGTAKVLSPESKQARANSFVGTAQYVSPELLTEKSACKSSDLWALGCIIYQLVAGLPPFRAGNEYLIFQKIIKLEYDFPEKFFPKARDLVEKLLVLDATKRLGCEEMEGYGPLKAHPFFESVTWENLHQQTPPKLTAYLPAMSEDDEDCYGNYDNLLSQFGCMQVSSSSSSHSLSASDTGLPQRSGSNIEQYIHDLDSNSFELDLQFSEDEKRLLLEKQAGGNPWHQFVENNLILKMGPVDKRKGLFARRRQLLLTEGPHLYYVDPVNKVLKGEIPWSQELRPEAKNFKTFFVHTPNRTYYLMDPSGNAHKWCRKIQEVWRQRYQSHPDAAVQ
# Description: as §1
# [4] = target: MAPK11 (p38 beta) (Homo sapiens, UniProt Q15759); experiment: SelectScreen kinase assay
# Chain of MAPK11 (p38 beta) (Q15759 whole entry): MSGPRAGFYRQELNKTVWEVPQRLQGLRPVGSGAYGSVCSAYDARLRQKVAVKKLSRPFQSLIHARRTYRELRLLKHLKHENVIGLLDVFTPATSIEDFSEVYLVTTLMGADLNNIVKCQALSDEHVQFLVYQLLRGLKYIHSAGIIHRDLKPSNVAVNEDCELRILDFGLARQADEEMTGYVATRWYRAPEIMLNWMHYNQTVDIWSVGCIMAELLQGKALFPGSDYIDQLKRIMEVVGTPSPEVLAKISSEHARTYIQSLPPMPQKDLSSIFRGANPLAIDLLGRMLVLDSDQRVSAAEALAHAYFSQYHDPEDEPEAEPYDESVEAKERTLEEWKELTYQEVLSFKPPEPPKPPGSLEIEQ
# Description: as §1
# [5] = target: FGFR4 (Homo sapiens, UniProt P22455); experiment: SelectScreen kinase assay
# Chain of FGFR4 (P22455 22-802): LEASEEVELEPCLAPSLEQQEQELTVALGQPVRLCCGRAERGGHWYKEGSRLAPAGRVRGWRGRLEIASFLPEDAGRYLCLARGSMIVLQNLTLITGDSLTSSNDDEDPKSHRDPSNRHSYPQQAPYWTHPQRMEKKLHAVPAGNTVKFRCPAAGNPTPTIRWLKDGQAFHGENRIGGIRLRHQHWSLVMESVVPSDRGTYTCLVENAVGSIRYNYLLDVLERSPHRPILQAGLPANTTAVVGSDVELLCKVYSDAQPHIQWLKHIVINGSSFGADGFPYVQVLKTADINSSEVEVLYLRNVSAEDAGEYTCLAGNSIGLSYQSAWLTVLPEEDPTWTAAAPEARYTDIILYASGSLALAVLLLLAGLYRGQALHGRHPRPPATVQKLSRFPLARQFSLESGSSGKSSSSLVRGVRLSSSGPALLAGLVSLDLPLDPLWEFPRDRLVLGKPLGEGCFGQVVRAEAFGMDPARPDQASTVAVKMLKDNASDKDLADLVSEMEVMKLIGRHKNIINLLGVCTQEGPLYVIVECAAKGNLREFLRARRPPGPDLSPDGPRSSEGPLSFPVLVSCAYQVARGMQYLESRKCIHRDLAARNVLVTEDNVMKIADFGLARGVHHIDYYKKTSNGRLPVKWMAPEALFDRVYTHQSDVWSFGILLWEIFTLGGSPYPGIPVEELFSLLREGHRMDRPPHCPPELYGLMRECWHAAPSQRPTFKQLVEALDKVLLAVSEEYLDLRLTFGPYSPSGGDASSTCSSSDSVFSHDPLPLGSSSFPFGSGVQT
# Description: as §1
# [6] = target: PIK3CG (p110 gamma) (Homo sapiens, UniProt P48736); experiment: SelectScreen kinase assay
# Chain of PIK3CG (p110 gamma) (P48736 whole entry): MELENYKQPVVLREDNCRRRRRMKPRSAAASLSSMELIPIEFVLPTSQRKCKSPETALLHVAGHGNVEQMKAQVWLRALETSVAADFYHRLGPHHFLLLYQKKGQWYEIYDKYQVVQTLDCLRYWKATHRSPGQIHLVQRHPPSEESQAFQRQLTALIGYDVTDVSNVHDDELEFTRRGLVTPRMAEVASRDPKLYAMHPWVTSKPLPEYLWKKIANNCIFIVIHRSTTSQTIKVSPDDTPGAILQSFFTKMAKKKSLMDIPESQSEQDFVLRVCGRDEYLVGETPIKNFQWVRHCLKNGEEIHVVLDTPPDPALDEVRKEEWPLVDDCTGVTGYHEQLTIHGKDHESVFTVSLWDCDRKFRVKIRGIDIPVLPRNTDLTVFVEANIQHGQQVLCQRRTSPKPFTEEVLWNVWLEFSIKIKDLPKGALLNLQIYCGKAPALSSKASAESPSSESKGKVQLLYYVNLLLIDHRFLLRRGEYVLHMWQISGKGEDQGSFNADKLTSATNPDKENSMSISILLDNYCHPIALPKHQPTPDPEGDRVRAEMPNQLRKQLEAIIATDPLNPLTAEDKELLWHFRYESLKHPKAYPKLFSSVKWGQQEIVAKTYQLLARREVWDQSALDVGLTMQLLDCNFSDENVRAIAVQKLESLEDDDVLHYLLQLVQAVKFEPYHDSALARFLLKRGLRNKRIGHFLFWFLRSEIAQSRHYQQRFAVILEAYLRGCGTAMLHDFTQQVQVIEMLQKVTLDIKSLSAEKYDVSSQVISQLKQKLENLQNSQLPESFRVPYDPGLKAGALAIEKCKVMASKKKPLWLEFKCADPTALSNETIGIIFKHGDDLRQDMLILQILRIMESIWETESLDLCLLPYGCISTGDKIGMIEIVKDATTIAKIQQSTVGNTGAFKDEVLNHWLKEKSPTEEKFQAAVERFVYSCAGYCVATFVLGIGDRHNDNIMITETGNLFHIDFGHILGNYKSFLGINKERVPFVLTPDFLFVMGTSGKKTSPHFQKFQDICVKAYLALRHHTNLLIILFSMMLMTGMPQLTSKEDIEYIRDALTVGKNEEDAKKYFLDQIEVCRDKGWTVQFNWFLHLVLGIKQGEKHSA
# Description: as §1
# [7] = target: MAPK3 (ERK1) (Homo sapiens, UniProt P27361); experiment: SelectScreen kinase assay
# Chain of MAPK3 (ERK1) (P27361 whole entry): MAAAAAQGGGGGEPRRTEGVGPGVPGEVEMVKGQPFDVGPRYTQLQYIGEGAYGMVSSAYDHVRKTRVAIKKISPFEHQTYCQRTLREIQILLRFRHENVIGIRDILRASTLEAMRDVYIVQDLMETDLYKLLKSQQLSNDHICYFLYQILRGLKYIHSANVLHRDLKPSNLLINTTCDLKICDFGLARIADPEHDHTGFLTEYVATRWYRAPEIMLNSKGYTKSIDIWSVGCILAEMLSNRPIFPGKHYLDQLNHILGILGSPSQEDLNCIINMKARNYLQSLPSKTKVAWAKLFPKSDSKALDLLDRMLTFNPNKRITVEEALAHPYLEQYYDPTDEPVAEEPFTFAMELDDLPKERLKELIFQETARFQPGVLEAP
# Description: as §1
# [8] = target: endogenous FES^S700C (Homo sapiens, UniProt P07332, S700C); experiment: In situ target engagement in live HL-60 macrophages (WEL033 post-labeling); type: cell-based; parameters: endogenous in cells; host or cells: HL-60 FES^S700C clone, differentiated to macrophages or neutrophils; conditions: for Relative FES labeling (%) Mean: Supplementary Figure 13b
# Chain of endogenous FES^S700C (P07332 whole entry S700C): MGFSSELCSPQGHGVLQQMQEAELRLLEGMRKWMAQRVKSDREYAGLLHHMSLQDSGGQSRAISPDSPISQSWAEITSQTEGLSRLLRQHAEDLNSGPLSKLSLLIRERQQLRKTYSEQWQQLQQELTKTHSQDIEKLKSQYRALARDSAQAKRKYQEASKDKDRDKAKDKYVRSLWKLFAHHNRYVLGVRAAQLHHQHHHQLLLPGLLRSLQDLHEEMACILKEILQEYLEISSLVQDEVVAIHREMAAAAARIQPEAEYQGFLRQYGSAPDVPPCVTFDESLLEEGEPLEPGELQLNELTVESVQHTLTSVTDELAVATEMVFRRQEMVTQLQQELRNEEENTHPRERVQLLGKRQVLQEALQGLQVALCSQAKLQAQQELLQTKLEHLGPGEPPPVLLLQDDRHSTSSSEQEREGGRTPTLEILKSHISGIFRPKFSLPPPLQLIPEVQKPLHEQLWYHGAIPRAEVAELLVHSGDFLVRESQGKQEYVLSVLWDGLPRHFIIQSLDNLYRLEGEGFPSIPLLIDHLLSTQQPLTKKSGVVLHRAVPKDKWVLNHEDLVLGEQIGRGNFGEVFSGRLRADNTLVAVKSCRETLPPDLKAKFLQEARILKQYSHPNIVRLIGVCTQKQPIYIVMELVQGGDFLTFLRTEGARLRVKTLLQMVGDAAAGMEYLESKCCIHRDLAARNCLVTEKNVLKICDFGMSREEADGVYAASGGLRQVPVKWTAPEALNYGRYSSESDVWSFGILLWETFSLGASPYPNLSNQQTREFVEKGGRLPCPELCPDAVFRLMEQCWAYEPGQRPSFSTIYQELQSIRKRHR
# Description: and harvested. […] Band intensities were
# Values represent means of fold enrichment (n
# [9] = target: FER (Homo sapiens, UniProt P16591); experiment: SelectScreen kinase assay
# Chain of FER (P16591 whole entry): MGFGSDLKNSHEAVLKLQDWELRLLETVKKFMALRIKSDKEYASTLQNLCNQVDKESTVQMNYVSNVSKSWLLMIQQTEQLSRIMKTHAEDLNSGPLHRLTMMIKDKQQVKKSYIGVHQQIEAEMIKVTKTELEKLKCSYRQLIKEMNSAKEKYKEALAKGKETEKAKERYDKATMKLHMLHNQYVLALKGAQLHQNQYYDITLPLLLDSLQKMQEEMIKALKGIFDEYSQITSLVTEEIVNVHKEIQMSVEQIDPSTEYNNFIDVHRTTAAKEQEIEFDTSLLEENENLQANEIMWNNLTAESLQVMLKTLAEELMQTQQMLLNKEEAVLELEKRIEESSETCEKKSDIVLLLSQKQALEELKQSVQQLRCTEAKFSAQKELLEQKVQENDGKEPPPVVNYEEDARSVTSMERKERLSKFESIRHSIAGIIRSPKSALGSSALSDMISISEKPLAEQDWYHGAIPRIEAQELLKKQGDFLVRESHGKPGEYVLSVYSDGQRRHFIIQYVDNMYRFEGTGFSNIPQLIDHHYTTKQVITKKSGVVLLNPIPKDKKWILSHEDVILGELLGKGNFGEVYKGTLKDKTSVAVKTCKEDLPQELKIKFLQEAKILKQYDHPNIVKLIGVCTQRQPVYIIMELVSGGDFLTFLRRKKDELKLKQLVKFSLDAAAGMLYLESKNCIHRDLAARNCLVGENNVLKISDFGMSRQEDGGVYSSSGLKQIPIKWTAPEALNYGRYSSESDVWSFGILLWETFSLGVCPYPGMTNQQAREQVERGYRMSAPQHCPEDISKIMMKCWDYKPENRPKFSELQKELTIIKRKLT
# Description: as §1
# [10] = 1 h, 1 μM WEL028, 1 h preincubation
smiles,measurement,setting,value
C#CCOc1ccc(Nc2ncc(Cl)c(Nc3ccccc3NC(=O)C=C)n2)c(OC)c1 [Compound 6],Inhibition (%),"[1]; 1 μM WEL028, 1 h preincubation",8%
same,Inhibition at 1 µM (%),"[1]; MARK4, 1 µM, ZLYTE, ATP Km app, listed as WEL028, 1 µM",6%
same,inhibition at 1 µM,"[1]; read-out: Inhibition at 1 µM (%), MARK4, 1 µM, ZLYTE, ATP Km app",9%
same,inhibition at 1 µM,[2],0%
same,inhibition at 1 µM,[3]; [10],5%
same,Inhibition at 1 µM (%),"[3]; PDK1 Direct, 1 µM, ZLYTE, ATP Km app, listed as WEL028, 1 µM",3%
same,inhibition at 1 µM,"[3]; read-out: Inhibition at 1 µM (%), PDK1 Direct, 1 µM, ZLYTE, ATP Km app",6%
same,inhibition at 1 µM,[4]; [10],6%
same,Inhibition at 1 µM (%),"[4]; MAPK11 (p38 beta), 1 µM, ZLYTE, ATP Km app, listed as WEL028, 1 µM",7%
same,inhibition at 1 µM,"[4]; read-out: Inhibition at 1 µM (%), MAPK11 (p38 beta), 1 µM, ZLYTE, ATP Km app",6%
same,inhibition at 1 µM,[5]; [10],34%
same,Inhibition at 1 µM (%),"[5]; FGFR4, 1 µM, ZLYTE, ATP Km app, listed as WEL028, 1 µM",38%
same,inhibition at 1 µM,"[5]; read-out: Inhibition at 1 µM (%), FGFR4, 1 µM, ZLYTE, ATP Km app",31%
same,inhibition at 1 µM,[6]; [10],13%
same,Inhibition at 1 µM (%),"[6]; PIK3CG (p110 gamma), 1 µM, Adapta, ATP Km app, listed as WEL028, 1 µM",18%
same,inhibition at 1 µM,"[6]; read-out: Inhibition at 1 µM (%), PIK3CG (p110 gamma), 1 µM, Adapta, ATP Km app",9%
same,inhibition at 1 µM,[7]; [10],19%
same,Inhibition at 1 µM (%),"[7]; MAPK3 (ERK1), 1 µM, ZLYTE, ATP Km app, listed as WEL028, 1 µM",14%
same,inhibition at 1 µM,"[7]; read-out: Inhibition at 1 µM (%), MAPK3 (ERK1), 1 µM, ZLYTE, ATP Km app",23%
same,IC50,"[8]; live FES^S700C HL-60 macrophages, 1 h, WEL033 1 µM post-labeling, n = 3, read-out: pIC50, relative FES labeling (converted)",3.98 nM
same,Relative FES labeling (%) Mean,[8]; log[WEL028] (M) -6,6.696%
same,Relative FES labeling (%) Mean,[8]; log[WEL028] (M) -7,2.482%
same,Relative FES labeling (%) Mean,[8]; log[WEL028] (M) -7.52288,5.093%
same,Relative FES labeling (%) Mean,[8]; log[WEL028] (M) -8,18.898%
same,Relative FES labeling (%) Mean,[8]; log[WEL028] (M) -8.52288,58.4122%
same,Relative FES labeling (%) Mean,[8]; log[WEL028] (M) -9,92.5647%
same,inhibition at 1 µM,[9]; [10],23%
same,Inhibition at 1 µM (%),"[9]; FER, 1 µM, ZLYTE, ATP Km app, listed as WEL028, 1 µM",27%
same,inhibition at 1 µM,"[9]; read-out: Inhibition at 1 µM (%), FER, 1 µM, ZLYTE, ATP Km app",20%
